# In ChEMBL document CHEMBL1201862, “PubChem BioAssay data set” (2004):
#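 Results reflect a 48-hour exposure of cells in 96-well plates to compound at five concentrations. GI50 = concentration required for 50% inhibition of growth.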 Activity calls are given as the source filed them. No stated cut-off is given here; in the data, active = GI50 up to about 1.1 µM and inactive = higher.
# Key:
# Experiment in all cases: NCI-60 cell line screen, 48 h
# M19-MEL = test system: M19-MEL
# EKVX = test system: EKVX
# SK-MEL-2 = test system: SK-MEL-2
# OVCAR-4 = test system: OVCAR-4
# OVCAR-5 = test system: OVCAR-5
# A549 = test system: A549
# M14 = test system: M14
# SF-268 = test system: SF-268
# HOP-18 = test system: HOP-18
# UO-31 = test system: UO-31
# OVCAR-3 = test system: OVCAR-3
# LXFL 529 = test system: LXFL 529
# SNB-75 = test system: SNB-75
# OVCAR-8 = test system: OVCAR-8
# NCI-H460 = test system: NCI-H460
# KM-20L2 = test system: KM-20L2
# MOLT-4 = test system: MOLT-4
# SR = test system: SR
# KM12 = test system: KM12
# SW-620 = test system: SW-620
# HT-29 = test system: HT-29
# NCI-H23 = test system: NCI-H23
# TK-10 = test system: TK-10
# K562 = test system: K562
# SK-MEL-5 = test system: SK-MEL-5
# SF-539 = test system: SF-539
# SNB-19 = test system: SNB-19
# RXF 393 = test system: RXF 393
# RPMI-8226 = test system: RPMI-8226
# LOX IMVI = test system: LOX IMVI
# HCT-15 = test system: HCT-15
# SK-MEL-28 = test system: SK-MEL-28
# UACC-257 = test system: UACC-257
# U-251 = test system: U-251
# UACC-62 = test system: UACC-62
# HOP-92 = test system: HOP-92
# DMS-114 = test system: DMS-114
# HCT-116 = test system: HCT-116
# DMS-273 = test system: DMS-273
# HL-60 = test system: HL-60
# SNB-78 = test system: SNB-78
# HOP-62 = test system: HOP-62
# ACHN = test system: ACHN
# HCC 2998 = test system: HCC 2998
# IGROV-1 = test system: IGROV-1
# CCRF-CEM = test system: CCRF-CEM
# SN12C = test system: SN12C
# COLO 205 = test system: COLO 205
# SK-OV-3 = test system: SK-OV-3
# Malme-3M = test system: Malme-3M
# DLD-1 = test system: DLD-1
# NCI-H226 = test system: NCI-H226
# CAKI-1 = test system: CAKI-1
# A498 = test system: A498
# 786-0 = test system: 786-0
# SF-295 = test system: SF-295
# NCI-H522 = test system: NCI-H522
structure (smiles),measurement,setting,value
CCCc1[nH]c(SCCCCCCCCSc2nc(-c3ccc(F)cc3)c(CCC)[nH]2)nc1-c1ccc(F)cc1,GI50,M19-MEL,29.9 µM (inactive)
same,GI50,EKVX,4.89 µM (inactive)
same,GI50,SK-MEL-2,24.2 µM (inactive)
same,GI50,OVCAR-4,10.3 µM (inactive)
same,GI50,OVCAR-5,33 µM (inactive)
same,GI50,A549,11.3 µM (inactive)
same,GI50,M14,17.3 µM (inactive)
same,GI50,SF-268,3.33 µM (inactive)
same,GI50,HOP-18,6.41 µM (inactive)
same,GI50,UO-31,6.11 µM (inactive)
same,GI50,OVCAR-3,1.94 µM (inactive)
same,GI50,LXFL 529,7.46 µM (inactive)
same,GI50,SNB-75,2.11 µM (inactive)
same,GI50,OVCAR-8,9.84 µM (inactive)
same,GI50,NCI-H460,35.2 µM (inactive)
same,GI50,KM-20L2,16.1 µM (inactive)
same,GI50,MOLT-4,4.65 µM (inactive)
same,GI50,SR,7.08 µM (inactive)
same,GI50,KM12,35.2 µM (inactive)
same,GI50,SW-620,> 100 µM (inactive)
same,GI50,HT-29,62.7 µM (inactive)
same,GI50,NCI-H23,4.49 µM (inactive)
same,GI50,TK-10,17.7 µM (inactive)
same,GI50,K562,3.83 µM (inactive)
same,GI50,SK-MEL-5,4.68 µM (inactive)
same,GI50,SF-539,6.21 µM (inactive)
same,GI50,SNB-19,21.3 µM (inactive)
same,GI50,RXF 393,27.4 µM (inactive)
same,GI50,RPMI-8226,1.98 µM (inactive)
same,GI50,LOX IMVI,10.3 µM (inactive)
same,GI50,HCT-15,7 µM
same,GI50,SK-MEL-28,26.7 µM (inactive)
same,GI50,UACC-257,12.2 µM (inactive)
same,GI50,U-251,18.7 µM (inactive)
same,GI50,UACC-62,5.58 µM (inactive)
same,GI50,HOP-92,3.8 µM (inactive)
same,GI50,DMS-114,3.94 µM (inactive)
same,GI50,HCT-116,5.42 µM (inactive)
same,GI50,DMS-273,44.3 µM (inactive)
same,GI50,HL-60,6.5 µM (inactive)
same,GI50,SNB-78,26.2 µM (inactive)
same,GI50,HOP-62,15.2 µM (inactive)
same,GI50,ACHN,54.1 µM (inactive)
same,GI50,HCC 2998,> 100 µM (inactive)
same,GI50,IGROV-1,37.7 µM (inactive)
same,GI50,CCRF-CEM,6.59 µM (inactive)
same,GI50,SN12C,9.42 µM (inactive)
same,GI50,COLO 205,77.4 µM (inactive)
CC1C=C[C@H](Sc2ccccc2)CC[C@@]1(C)O (stereo partly specified),GI50,M19-MEL,> 100 µM (inactive)
same,GI50,EKVX,> 100 µM (inactive)
same,GI50,SK-OV-3,> 100 µM (inactive)
same,GI50,SK-MEL-2,> 100 µM (inactive)
same,GI50,OVCAR-5,> 100 µM (inactive)
same,GI50,A549,> 100 µM (inactive)
same,GI50,M14,> 100 µM (inactive)
same,GI50,UO-31,30.1 µM (inactive)
same,GI50,Malme-3M,> 100 µM (inactive)
same,GI50,LXFL 529,99.3 µM (inactive)
same,GI50,SNB-75,97.1 µM (inactive)
same,GI50,OVCAR-8,> 100 µM (inactive)
same,GI50,NCI-H460,> 100 µM (inactive)
same,GI50,KM-20L2,> 100 µM (inactive)
same,GI50,MOLT-4,35.1 µM (inactive)
same,GI50,DLD-1,> 100 µM (inactive)
same,GI50,NCI-H226,> 100 µM (inactive)
same,GI50,CAKI-1,> 100 µM (inactive)
same,GI50,SW-620,> 100 µM (inactive)
same,GI50,HT-29,> 100 µM (inactive)
same,GI50,NCI-H23,70.5 µM (inactive)
same,GI50,TK-10,> 100 µM (inactive)
same,GI50,K562,67.5 µM (inactive)
same,GI50,SK-MEL-5,59.4 µM (inactive)
same,GI50,SF-539,> 100 µM (inactive)
same,GI50,SNB-19,89.9 µM (inactive)
same,GI50,RXF 393,76.2 µM (inactive)
same,GI50,RPMI-8226,57.3 µM (inactive)
same,GI50,LOX IMVI,> 100 µM (inactive)
same,GI50,HCT-15,> 100 µM
same,GI50,SK-MEL-28,> 100 µM (inactive)
same,GI50,UACC-257,> 100 µM (inactive)
same,GI50,U-251,> 100 µM (inactive)
same,GI50,UACC-62,86.1 µM (inactive)
same,GI50,HOP-92,40.5 µM (inactive)
same,GI50,DMS-114,55.8 µM (inactive)
same,GI50,A498,> 100 µM (inactive)
same,GI50,786-0,> 100 µM (inactive)
same,GI50,HCT-116,97.3 µM (inactive)
same,GI50,HL-60,33.6 µM (inactive)
same,GI50,SNB-78,> 100 µM (inactive)
same,GI50,HOP-62,> 100 µM (inactive)
same,GI50,ACHN,> 100 µM (inactive)
same,GI50,HCC 2998,> 100 µM (inactive)
same,GI50,IGROV-1,> 100 µM (inactive)
same,GI50,CCRF-CEM,34.7 µM (inactive)
same,GI50,SN12C,> 100 µM (inactive)
same,GI50,COLO 205,> 100 µM (inactive)
CCCC(=O)OC1C(C2COC(C)(C)O2)OC2OC(C)(C)OC21 (stereo unspecified),GI50,M19-MEL,> 100 µM (inactive)
same,GI50,EKVX,> 100 µM (inactive)
same,GI50,SK-OV-3,> 100 µM (inactive)
same,GI50,OVCAR-5,> 100 µM (inactive)
same,GI50,M14,> 100 µM (inactive)
same,GI50,UO-31,> 100 µM (inactive)
same,GI50,SF-295,> 100 µM (inactive)
same,GI50,OVCAR-8,> 100 µM (inactive)
same,GI50,NCI-H460,> 100 µM (inactive)
same,GI50,KM-20L2,> 100 µM (inactive)
same,GI50,MOLT-4,> 100 µM (inactive)
same,GI50,SR,> 100 µM (inactive)
same,GI50,KM12,> 100 µM (inactive)
same,GI50,HT-29,> 100 µM (inactive)
same,GI50,NCI-H522,> 100 µM (inactive)
same,GI50,NCI-H23,> 100 µM (inactive)
same,GI50,TK-10,> 100 µM (inactive)
same,GI50,K562,> 100 µM (inactive)
same,GI50,SNB-19,> 100 µM (inactive)
same,GI50,RXF 393,> 100 µM (inactive)
same,GI50,SK-MEL-28,> 100 µM (inactive)
same,GI50,UACC-257,> 100 µM (inactive)
same,GI50,U-251,> 100 µM (inactive)
same,GI50,UACC-62,> 100 µM (inactive)
same,GI50,HOP-92,> 100 µM (inactive)
same,GI50,DMS-114,> 100 µM (inactive)
same,GI50,A498,> 100 µM (inactive)
same,GI50,HCT-116,> 100 µM (inactive)
same,GI50,DMS-273,> 100 µM (inactive)
same,GI50,HL-60,> 100 µM (inactive)
same,GI50,SNB-78,> 100 µM (inactive)
same,GI50,HOP-62,> 100 µM (inactive)
same,GI50,ACHN,> 100 µM (inactive)
same,GI50,IGROV-1,> 100 µM (inactive)
same,GI50,CCRF-CEM,> 100 µM (inactive)
